# Key:
# [1] = sedimentation (sinking speed) of ALA particles in NE solution; assay type: physicochemical; settings: sieve fraction 60-90 μm
# [2] = fresh ALA solution, approximate physiological value of 8, after two weeks; cited from earlier work
smiles,measurement,setting,value
"NCC(=O)CCC(=O)O [ALA, 5-aminolaevulinic acid]",Sinking speed of the ALA particles in solution,[1]; NE 12 % g/g in solution,396 μm/10 s
same,Sinking speed of the ALA particles in solution,[1]; NE 18 % g/g in solution,119 μm/10 s
same,Sinking speed of the ALA particles in solution,[1]; NE 24 % g/g in solution,3 μm/10 s
same,undecomposed active substance,[2],approx. 10%
